Measured values reported in paper PMC6433232, “Targeting mitochondria in cancer therapy could provide a basis for the selective anti-cancer activity” (PLoS ONE, 2019).
Read-outs that look alike come from different tables or passages of the source.

System: primary acute myeloid leukemia (AML) cells obtained from patients
Experiment: Kinase inhibitor library screening with and without NSC130362, primary AML cells
Assay type: cell-based, Human
[1] = ratio of EC50 for inhibitor to EC50 for inhibitor/NSC130362 combination, NSC130362 10 μM, Screen N 1
[2] = ratio of EC50 for inhibitor to EC50 for inhibitor/NSC130362 combination, NSC130362 10 μM, Screen N 2
[3] = ratio of EC50 for inhibitor to EC50 for inhibitor/NSC130362 combination, NSC130362 10 μM, Screen N 3

SMILES | EC50 decrease, fold (Screen N 1) [1] [fold] | EC50 decrease, fold (Screen N 2) [2] [fold] | EC50 decrease, fold (Screen N 3) [3] [fold] | EC50 decrease, fold (Screen N 1) [fold] | EC50 decrease, fold (Screen N 2) [fold] | EC50 decrease, fold (Screen N 3) [fold]
CNC(=O)c1c(F)cccc1Nc1nc(Nc2cc3c(cc2OC)CCN3C(=O)CN(C)C)nc2[nH]ccc12 [GSK-1838705A] | 257.7 | 1.0 | 522.0 | – | – | –
CCc1cc(Nc2nccc(-c3c(-c4ccc(OC)c(C(=O)Nc5c(F)cccc5F)c4)nc4ccccn34)n2)c(OC)cc1N1CCC(N2CCN(S(C)(=O)=O)CC2)CC1 [GSK-1904529A] | 41.6 | 1.0 | 44.8 | – | – | –
COc1ccc(COc2ccc(Cc3cnc(N)nc3N)cc2OC)cc1 [GW-2580] | – | 1.0 | – | – | – | –
CCc1nc(C(N)=O)c(Nc2ccc(N3CCC(N4CCN(C)CC4)CC3)c(OC)c2)nc1NC1CCOCC1 [Gilteritinib (ASP-2215)] | 0.2 | – | 1.3 | – | – | –
CC(C)n1nc(-c2ccc3oc(N)nc3c2)c2c(N)ncnc21 [INK-128] | 0.0632 | 0.9 | 0.0858 | – | – | –
Cc1ccc2nc(NC(=O)CSc3nc4c(c(=O)n3-c3ccccc3)SCC4)sc2c1 [IWP2] | – | 1.0 | – | – | – | –
O=C(Nc1cccc2cccnc12)c1ccc(N2C(=O)[C@@H]3[C@H](C2=O)[C@@H]2C=C[C@H]3C2)cc1 [IWR1] | – | 1.0 | – | – | – | –
COc1cc(C(=O)O)ccc1NC(=O)[C@@H]1N[C@@H](CC(C)(C)C)[C@](C#N)(c2ccc(Cl)cc2F)[C@H]1c1cccc(Cl)c1F [Idesanutlin] | – | 1.0 | – | – | – | –
CC(C)NC[C@@H](C(=O)N1CCN(c2ncnc3c2[C@H](C)C[C@H]3O)CC1)c1ccc(Cl)cc1 [Ipatasertib (GDC-0068)] | – | 1.0 | – | – | – | –
Nc1nc(Nc2ccc(S(N)(=O)=O)cc2)nn1C(=O)c1c(F)cccc1F [JNJ-7706621] | 3.7 | 1.0 | 0.182 | – | – | –
CN(C)CC(=O)N1CCC(c2ccc(NC(=O)c3nc(C#N)c[nH]3)c(C3=CCCCC3)c2)CC1 [JNJ-28312141] | 0.3 | 1.0 | 2.3 | – | – | –
Cn1cc(-c2ccc3nnc(C(F)(F)c4ccc5ncccc5c4)n3n2)cn1 [JNJ-38877605] | 7.6 | 1.0 | 0.00829 | – | – | –
COc1cc(Oc2ccnc3cc(OC)c(OC)cc23)ccc1NC(=O)NC(C)c1nccs1 (centres unmarked) [KI20227] | 0.6 | 1.0 | 1.0 | – | – | –
O=c1cc(-c2cccc3c2Sc2ccccc2S3)oc(N2CCOCC2)c1 [KU-55933] | 0.222 | 1.0 | 959.3 | – | – | –
O=C(c1ccc(/C=C/c2n[nH]c3ccccc23)cc1)N1CCNCC1 [KW-2449] | 1.6 | 1.0 | 0.9 | – | – | –
Cc1cc(-c2ncc(CC(=O)Nc3ccc(-c4cnccn4)cn3)cc2C)ccn1 [LGK974] | – | 1.0 | – | – | – | –
CN(C)C[C@@H]1CCn2cc(c3ccccc32)C2=C(C(=O)NC2=O)c2cn(c3ccccc23)CCO1 [LY-333531] | 3.3 | 1.0 | 1.1 | – | – | –
CS(=O)(=O)CCNCc1ccc(-c2ccc3ncnc(Nc4ccc(OCc5cccc(F)c5)c(Cl)c4)c3c2)o1 [Lapatinib] | – | 1.0 | – | – | – | –
Nc1cccc2c1CN(C1CCC(=O)NC1=O)C2=O (centres unmarked) [Lenalidomide] | – | – | 1.4 | – | – | –
COc1cc2nccc(Oc3ccc(NC(=O)NC4CC4)c(Cl)c3)c2cc1C(N)=O [Lenvatinib] | 1.9 | 1.0 | 1.5 | – | – | –
Cc1ccc(F)c(NC(=O)Nc2ccc(-c3cccc4[nH]nc(N)c34)cc2)c1 [Linifanib (ABT-869)] | 261.0 | 1.4 | 1.0 | – | – | –
CC[C@H](C)C(=O)O[C@H]1C[C@@H](C)C=C2C=C[C@H](C)[C@H](CC[C@@H]3C[C@@H](O)CC(=O)O3)[C@H]21 [Lovastatin] | – | – | 1.0 | – | – | –
COCCNCc1ccc(-c2cc3nccc(Oc4ccc(NC(=S)NC(=O)Cc5ccc(F)cc5)cc4F)c3s2)nc1 [MGCD-265] | 6.0 | 1.0 | 97.6 | – | – | –
NC1(c2ccc(-c3nc4ccn5c(=O)[nH]nc5c4cc3-c3ccccc3)cc2)CCC1 [MK-2206] | 15.9 | 1.0 | 1.0 | – | – | –
COc1c(Cl)cc2c([nH]c3cnccc32)c1NC(=O)c1cccnc1C [MLN120B] | 6.2 | 1.0 | 121.2 | – | – | –
O=C(O)c1ccc(Nc2ncc3c(n2)-c2ccc(Cl)cc2C(c2c(F)cccc2F)=NC3)cc1 [MLN8054] | 1.3 | 1.0 | 0.001 | – | – | –
Cc1ccc(NC(=O)c2ccc(CN3CCN(C)CC3)cc2)cc1Nc1nc(-c2cccnc2)cs1 [Masitinib (AB-1010)] | – | – | – | 0.174 | 1.0 | 3.7
CC1(C)CNc2cc(NC(=O)c3cccnc3NCc3ccncc3)ccc21 [Motesanib (AMG-706)] | 1.0 | 1.0 | 1.0 | – | – | –
Nc1ncnc2c1c(-c1cccc(OCc3ccccc3)c1)cn2C1CC(CN2CCCC2)C1 (centres unmarked) [NVP-ADW742] | 3.1 | 1.0 | 1.0 | – | – | –
COc1cc(N2CCC(N3CCN(C)CC3)CC2)ccc1Nc1ncc(Cl)c(Nc2ccccc2S(=O)(=O)C(C)C)n1 [NVP-TAE684] | 0.55 | 1.0 | 0.755 | – | – | –
